This note sets out measurements from ChEMBL document CHEMBL4428076 (J Med Chem, 2016).

Series [1] has as its system Mus musculus. Description: Antinociceptive activity in C57BL/6 mouse assessed as increase in reaction time at 0.1 to 10 mg/kg, sc measured 15 mins post dose by radiant heat tail flick assay. The format is functional, organism-based.
Series [2] concerns the target Delta-type opioid receptor (Mus musculus, UniProt P32300). Put plainly: Displacement of [125I]-IBNtxA from mouse delta opioid receptor-1 expressed in CHO cell membranes incubated for 90 mins.
For series [3], the system named is Mus musculus. Put plainly: Antinociceptive activity in CD-1 mouse assessed as increase in reaction time at 1.5 mg/kg, sc measured 15 mins post dose in presence of delta opioid receptor antagonist NTI by radiant heat tail flick assay. In kind it is functional, organism-based.
Series [4] has as its target Mu-type opioid receptor (Homo sapiens, UniProt P35372). Description: Inhibition of DAMGO-induced beta-arrestin-2 recruitment at mu opioid receptor-1 (unknown origin) expressed in CHO cells preincubated for 30 mins followed by DAMGO addition measured after 90 mins by beta-galactosidase complementation assay. The format is cell-based.
The subject of series [5] is Mus musculus. Description: Antinociceptive activity in MOR-1 7TM/E1 splice variant knock out sc dosed C57BL/6 mouse assessed as increase in reaction time by radiant heat tail flick assay. Conditions: C57BL/6, sc. The format is functional.
Series [6] addresses Mu-type opioid receptor (Mus musculus) (UniProt P42866). Put plainly: Agonist activity at mouse mu opioid receptor-1 expressed in CHO cell membranes assessed as [35S]GTPgammaS binding incubated for 60 mins by scintillation spectroscopic analysis relative to DAMGO. The format is functional.
The target of series [7] is T1, Kappa-type opioid receptor (Mus musculus, UniProt P33534). Description: Antagonist activity at mouse kappa opioid receptor-1 expressed in CHO cell membranes assessed as inhibition of U50,488H-induced [35S]GTPgammaS binding incubated for 60 mins by scintillation spectroscopic analysis. The format is functional.
T1 sequence (P33534 whole entry): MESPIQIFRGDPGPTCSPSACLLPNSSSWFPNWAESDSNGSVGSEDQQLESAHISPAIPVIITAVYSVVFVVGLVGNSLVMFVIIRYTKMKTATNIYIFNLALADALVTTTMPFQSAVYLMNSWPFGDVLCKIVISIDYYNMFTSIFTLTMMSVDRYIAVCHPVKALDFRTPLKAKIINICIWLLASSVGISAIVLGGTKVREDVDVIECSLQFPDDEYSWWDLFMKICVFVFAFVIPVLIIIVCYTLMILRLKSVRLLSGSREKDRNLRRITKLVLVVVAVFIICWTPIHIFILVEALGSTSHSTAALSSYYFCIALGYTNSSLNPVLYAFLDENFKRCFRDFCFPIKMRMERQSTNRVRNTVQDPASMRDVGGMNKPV
Series [8] relates to Mus musculus. Put plainly: Antinociceptive activity in 129Sv6 mouse assessed as increase in reaction time at 0.1 to 10 mg/kg, sc measured 15 mins post dose by radiant heat tail flick assay. The format is functional, organism-based.
Series [9] has as its system Mus musculus. Description: Antinociceptive activity in CD-1 mouse assessed as increase in reaction time at 1.5 mg/kg, sc measured 15 mins post dose in presence of opioid antagonist naloxone by radiant heat tail flick assay. In kind it is functional, organism-based.
Series [10] has as its target 5-hydroxytryptamine receptor 7 (Homo sapiens) (UniProt P34969). Put plainly: Displacement of [3H]LSD from recombinant human 5HT7A receptor expressed in HEK cell membrane after 90 mins by microbeta scintillation counting method.
Series [11] is described as follows: Toxicity in CD-1 mouse assessed as physical dependence by measuring number of jumps at 1.5 mg/kg, sc bid for 29 days followed by opioid antagonist naloxone injection on day 29 measured for 15 mins post last dose. As to conditions: in vivo, 0.25 h. In kind it is organism-based.
Series [12] can be described thus: Toxicity in CD-1 mouse assessed as time for drug tolerance at 1.5 mg/kg, sc bid at dosing intervals of 12 hrs. The format is organism-based. As to conditions: in vivo.
In series [13] the target is T1, Kappa-type opioid receptor. Put plainly: Displacement of [125I]-IBNtxA from mouse kappa opioid receptor-1 expressed in CHO cell membranes incubated for 90 mins.
In series [14] the test system is Mus musculus. Put plainly: Antinociceptive activity in sc dosed CD-1 mouse assessed as increase in reaction time administered twice daily at dosing intervals of 12 hrs for 29 days by radiant heat tail flick assay. As to conditions: CD-1, sc. The format is functional.
The nature of series [15]: Toxicity in CD-1 mouse assessed as inhibition of gastrointestinal transit by measuring distance traveled by charcoal at 1.5 mg/kg, sc followed by charcoal meal administration measured after 30 mins. In kind it is organism-based. Conditions: in vivo, 0.5 h.
Series [16] concerns Mus musculus. Description: Antinociceptive activity in CD-1 mouse assessed as increase in reaction time at 1.5 mg/kg, sc measured 15 mins post dose in presence of adrenergic alpha2 receptor antagonist yohimbine by radiant heat tail flick assay. The format is functional, organism-based.
The target in series [17] is T2, Alpha-2C adrenergic receptor (Homo sapiens) (UniProt P18825).
T2 sequence (whole entry): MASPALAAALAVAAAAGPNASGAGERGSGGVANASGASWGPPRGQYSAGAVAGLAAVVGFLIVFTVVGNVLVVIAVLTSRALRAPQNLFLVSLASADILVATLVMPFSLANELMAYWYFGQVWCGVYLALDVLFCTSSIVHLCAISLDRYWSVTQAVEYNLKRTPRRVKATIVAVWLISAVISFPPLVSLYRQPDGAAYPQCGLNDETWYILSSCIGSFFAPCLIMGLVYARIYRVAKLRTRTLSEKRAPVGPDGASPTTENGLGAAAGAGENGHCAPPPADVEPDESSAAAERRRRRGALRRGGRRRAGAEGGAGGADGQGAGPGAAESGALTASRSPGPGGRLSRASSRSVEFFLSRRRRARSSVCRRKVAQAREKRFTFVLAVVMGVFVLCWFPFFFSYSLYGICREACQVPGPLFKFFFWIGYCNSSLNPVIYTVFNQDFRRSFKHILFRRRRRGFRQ
Put plainly: Displacement of [3H]rauwolscine from recombinant human adrenergic alpha2C receptor expressed in MDCK cell membrane after 90 mins by microbeta scintillation counting method.

SMILES strings stand for the structures. Calls of active or inactive are those of the source. The rule behind the calls is not given here.

Chain of Mu-type opioid receptor (P35372 whole entry, canonical isoform): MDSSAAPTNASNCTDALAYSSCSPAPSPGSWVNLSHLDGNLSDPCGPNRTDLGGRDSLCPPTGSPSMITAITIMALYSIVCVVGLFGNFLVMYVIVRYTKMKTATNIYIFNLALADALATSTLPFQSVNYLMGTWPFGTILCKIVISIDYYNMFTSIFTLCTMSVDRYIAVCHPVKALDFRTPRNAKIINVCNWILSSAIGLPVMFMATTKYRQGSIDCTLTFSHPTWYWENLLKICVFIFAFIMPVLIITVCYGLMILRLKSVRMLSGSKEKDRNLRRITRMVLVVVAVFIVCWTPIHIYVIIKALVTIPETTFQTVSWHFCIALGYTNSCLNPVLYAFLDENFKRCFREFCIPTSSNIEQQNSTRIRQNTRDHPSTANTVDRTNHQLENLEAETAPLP
Chain of 5-hydroxytryptamine receptor 7 (Homo sapiens) (P34969 whole entry): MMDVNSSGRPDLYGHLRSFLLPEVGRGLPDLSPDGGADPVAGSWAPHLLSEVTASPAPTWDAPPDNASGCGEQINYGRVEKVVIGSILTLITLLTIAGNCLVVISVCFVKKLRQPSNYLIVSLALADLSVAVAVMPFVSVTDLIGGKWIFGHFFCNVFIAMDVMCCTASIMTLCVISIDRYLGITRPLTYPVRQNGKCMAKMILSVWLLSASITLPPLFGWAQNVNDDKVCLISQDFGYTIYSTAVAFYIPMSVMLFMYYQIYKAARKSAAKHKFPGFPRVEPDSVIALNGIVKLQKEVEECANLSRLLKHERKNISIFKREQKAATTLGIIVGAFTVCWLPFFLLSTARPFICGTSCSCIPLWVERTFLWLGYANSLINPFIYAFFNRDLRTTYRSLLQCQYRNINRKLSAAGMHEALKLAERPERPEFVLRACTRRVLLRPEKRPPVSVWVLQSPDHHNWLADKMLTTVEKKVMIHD
Chain of Mu-type opioid receptor (Mus musculus) (P42866 whole entry): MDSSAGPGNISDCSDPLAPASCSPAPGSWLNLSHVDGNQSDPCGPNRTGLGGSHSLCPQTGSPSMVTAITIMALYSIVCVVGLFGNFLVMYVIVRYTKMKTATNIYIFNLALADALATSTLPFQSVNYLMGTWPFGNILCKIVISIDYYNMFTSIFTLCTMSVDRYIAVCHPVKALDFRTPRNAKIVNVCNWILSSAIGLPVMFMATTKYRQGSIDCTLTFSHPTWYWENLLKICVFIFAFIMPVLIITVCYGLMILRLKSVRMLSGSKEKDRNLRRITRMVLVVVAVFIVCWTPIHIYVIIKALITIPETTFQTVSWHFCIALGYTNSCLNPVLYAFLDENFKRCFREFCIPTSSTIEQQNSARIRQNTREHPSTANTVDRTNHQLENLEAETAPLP
Chain of Delta-type opioid receptor (P32300 whole entry): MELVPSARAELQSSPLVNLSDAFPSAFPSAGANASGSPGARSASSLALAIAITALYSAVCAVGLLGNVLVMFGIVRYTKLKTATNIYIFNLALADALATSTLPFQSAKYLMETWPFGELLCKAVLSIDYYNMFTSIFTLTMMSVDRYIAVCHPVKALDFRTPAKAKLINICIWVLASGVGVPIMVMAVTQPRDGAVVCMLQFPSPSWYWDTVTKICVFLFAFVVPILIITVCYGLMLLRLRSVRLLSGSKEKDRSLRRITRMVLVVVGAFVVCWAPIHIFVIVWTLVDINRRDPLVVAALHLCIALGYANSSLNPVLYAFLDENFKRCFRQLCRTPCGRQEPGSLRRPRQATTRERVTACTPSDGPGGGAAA

In the case of `CC[C@@H]1CN2CC[C@]3(Nc4cccc(OC)c4C3=O)[C@@H]2C[C@@H]1/C(=C\OC)C(=O)OC`, the outcome in [1], in series [3], in series [8] and in series [16] was Active. Also, the Ki came out at 3 nM in series [2] and 24 nM in [13]. Also, the IC50 in series [4] came to 34 nM; in [7], 31 nM. In addition, the inhibition entry in series [4] is “Dose-dependent effect”. Moreover, the ED50 in series [5] is above 30 mg/kg; in [14], 4.5 mg/kg. In addition, the Emax in series [6] was found to be 84%. Moreover, in series [9], the outcome was inactive. The inhibition entry in series [10] and in [17] was “Active” throughout. Also, the Activity in [11] is listed as 14; in [15] it was “Toxic”. The Time in series [12] turned out to be 29 days.
